Measurements published in ChEMBL document CHEMBL1201862, “PubChem BioAssay data set” (2004).
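48-hour exposure; five concentrations; linearly interpolated endpoints. GI50 marks 50% less growth.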 Activity calls are given as the source filed them. No stated cut-off is given here; in the data, active = GI50 up to about 1.1 µM and inactive = higher.

Key:
Experiment in all cases: NCI anticancer screen, dose series, 48 h
RXF 393 = tested on: RXF 393
SW-620 = tested on: SW-620
TK-10 = tested on: TK-10
Malme-3M = tested on: Malme-3M
SK-MEL-5 = tested on: SK-MEL-5
UACC-62 = tested on: UACC-62
HT-29 = tested on: HT-29
SK-OV-3 = tested on: SK-OV-3
ACHN = tested on: ACHN
LOX IMVI = tested on: LOX IMVI
SR = tested on: SR
UO-31 = tested on: UO-31
DLD-1 = tested on: DLD-1
OVCAR-5 = tested on: OVCAR-5
EKVX = tested on: EKVX
CAKI-1 = tested on: CAKI-1
CCRF-CEM = tested on: CCRF-CEM
OVCAR-8 = tested on: OVCAR-8
OVCAR-3 = tested on: OVCAR-3
MDA-MB-231 = tested on: MDA-MB-231

Measured: GI50

O=C(/C=C/c1c(O)ccc2ccccc12)c1cccc(O)c1
inactive: RXF 393 > 77.4 µM | SW-620 > 100 µM | TK-10 > 100 µM | Malme-3M 59.8 µM | SK-MEL-5 50.4 µM | UACC-62 28.8 µM | HT-29 > 100 µM | SK-OV-3 > 100 µM | ACHN > 100 µM | LOX IMVI 41.8 µM | SR 42.7 µM | UO-31 > 100 µM | DLD-1 > 100 µM | OVCAR-5 > 100 µM | EKVX > 100 µM | CAKI-1 > 100 µM | CCRF-CEM 30.1 µM | OVCAR-8 > 100 µM | OVCAR-3 > 76.9 µM

COC(=O)C1=CCON(c2ccccc2)C1c1ccccc1 (stereo unspecified)
inactive: RXF 393 48 µM | SW-620 70.5 µM | TK-10 44.9 µM | Malme-3M 48.1 µM | UACC-62 49.8 µM | HT-29 40.4 µM | SK-OV-3 53 µM | ACHN 57 µM | LOX IMVI 47.1 µM | SR 31.3 µM | UO-31 36.1 µM | DLD-1 39.1 µM | OVCAR-5 94.2 µM | EKVX 42.1 µM | CAKI-1 42.9 µM | CCRF-CEM 47.4 µM | OVCAR-3 > 100 µM

Cc1cc(NCCCCCCCNc2cc(C)nc3cc([N+](=O)[O-])ccc23)c2ccc([N+](=O)[O-])cc2n1
inactive: RXF 393 8.18 µM | SW-620 2.1 µM | TK-10 17.7 µM | Malme-3M 29.6 µM | SK-MEL-5 6.43 µM | MDA-MB-231 2.47 µM | UACC-62 16.6 µM | HT-29 2.53 µM | SK-OV-3 24.9 µM | ACHN 12.7 µM | LOX IMVI 2 µM | SR 1.53 µM | UO-31 13.9 µM | DLD-1 1.82 µM | OVCAR-5 15.6 µM | EKVX 15.2 µM | CAKI-1 23.7 µM | CCRF-CEM 2.04 µM | OVCAR-8 1.87 µM | OVCAR-3 4.38 µM

O=c1cc(-c2ccccc2)[nH]c2cc(Cl)cc(Cl)c12
inactive: RXF 393 15.2 µM | SW-620 > 100 µM | TK-10 46.1 µM | Malme-3M 20.6 µM | SK-MEL-5 37.8 µM | UACC-62 23.2 µM | HT-29 > 100 µM | SK-OV-3 23.6 µM | ACHN 43.9 µM | LOX IMVI 70 µM | SR 3.16 µM | UO-31 84.7 µM | DLD-1 > 100 µM | OVCAR-5 > 100 µM | CAKI-1 49 µM | CCRF-CEM > 100 µM | OVCAR-8 26.1 µM

C/C=C/C=C/C=C/C=C/C(=O)O
inactive: RXF 393 > 100 µM | SW-620 > 100 µM | Malme-3M > 100 µM | SK-MEL-5 > 100 µM | UACC-62 > 100 µM | HT-29 > 100 µM | SK-OV-3 > 100 µM | ACHN > 100 µM | LOX IMVI > 100 µM | SR > 100 µM | UO-31 > 100 µM | DLD-1 > 100 µM | OVCAR-5 > 100 µM | EKVX > 100 µM | CAKI-1 > 100 µM | CCRF-CEM > 100 µM | OVCAR-8 > 100 µM | OVCAR-3 > 100 µM
